The values below come from article PMC5908784, “Extracellular loops 2 and 3 of the calcitonin receptor selectively modify agonist binding and efficacy” (Biochemical Pharmacology, 2018).

Holding throughout (test): Homologous whole cell competition binding
Details in all cases: homologous competition of 125I-sCT(8-32), whole cells, mean ± S.E.M., SEM

One assay deals with T1, hCTR Y374A (Homo sapiens, UniProt P30988, Y374A).
T1 construct: c-Myc (N); expressed in transfected cells
T1 sequence (P30988 25-474 Y374A): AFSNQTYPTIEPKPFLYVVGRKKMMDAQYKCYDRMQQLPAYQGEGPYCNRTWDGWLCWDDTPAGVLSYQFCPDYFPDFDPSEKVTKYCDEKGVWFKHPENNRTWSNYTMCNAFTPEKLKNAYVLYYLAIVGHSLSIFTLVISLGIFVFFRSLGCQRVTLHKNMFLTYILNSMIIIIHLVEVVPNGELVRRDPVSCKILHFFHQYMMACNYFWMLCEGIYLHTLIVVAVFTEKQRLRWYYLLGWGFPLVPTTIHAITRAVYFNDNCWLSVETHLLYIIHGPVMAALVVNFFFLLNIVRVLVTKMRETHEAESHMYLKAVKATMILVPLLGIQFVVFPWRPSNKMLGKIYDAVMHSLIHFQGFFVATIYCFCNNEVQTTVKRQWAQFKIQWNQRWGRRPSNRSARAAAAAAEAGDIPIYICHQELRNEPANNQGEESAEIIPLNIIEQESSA
Put shortly: (§1)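 Affinity comes from self-competition of sCT(8-32) against its iodinated form on intact cells, held at 4 °C overnight. Bound counts were read on a gamma counter, fitted to a 3-parameter logistic curve and converted with Cheng-Prusoff.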

Another assay addresses T2, hCTR L291A (Homo sapiens, UniProt P30988, L291A).
T2 construct: expressed in transfected cells
T2 sequence (P30988 25-474 L291A): T1 sequence (P30988 25-474 Y374A) with L267A, A350Y
Put shortly: as §1

Another assay deals with T3, hCTR L297A (Homo sapiens, UniProt P30988, L297A).
T3 construct: c-Myc (N); expressed in transfected cells
T3 sequence (P30988 25-474 L297A): T1 sequence (P30988 25-474 Y374A) with L273A, A350Y
Put shortly: as §1

In another assay the target is T4, hCTR M367A (Homo sapiens, UniProt P30988, M367A).
T4 construct: c-Myc (N); expressed in transfected cells
T4 sequence (P30988 25-474 M367A): T1 sequence (P30988 25-474 Y374A) with M343A, A350Y
Put shortly: as §1

Residue numbers refer to the chain shown, from its start. Where no end group is shown, it is not given here.

For “VLGKLSQELHKLQTYPRTNTGSGTP-NH2 [sCT(8-32)]”, the inhibition constant Ki on hCTR Y374A is 148 pM; on hCTR L291A, 1740 pM; on hCTR L297A it was 63.1 pM; at hCTR M367A, 295 pM.
